Data from paper PMC5590070, “Anti-Inflammatory, Antioxidant, Antibiotic, and Cytotoxic Activities of Tanacetum vulgare L. Essential Oil and Its Constituents” (Medicines, 2017).
In brackets after ≈: the same amount, converted by molar mass. Where two headings read alike, the source gives them in different places.

Assays:
[1] = system: NO production in murine macrophage RAW 264.7 cells; assay: Inhibition of NO production in LPS-stimulated RAW 264.7 macrophages (Griess reaction); type: cell-based; conditions: for IC50 / Anti-Inflammation IC50: inhibition of NO production, RAW 264.7, 100 ng·mL^−1 LPS, 24 h; for IC50: read-out: Anti-Inflammation IC50
Description: We evaluated the inhibition NO production by T. vulgare essential oil and compounds as described by Legault et al.. Control L-NAME was used as positive control. Murine macrophage RAW 264.7 cells were incubated with essential oil or dissolved compounds in DMSO and then stimulated with 100 ng·mL^−1 LPS and incubated at 37 °C. After 24 h, we collected the cell-free supernatants and immediately determined the NO concentration using the Griess reaction. We read the absorbance at 540 nm using an automated Varioskan Ascent plate reader (Labsystems, Milford, MA, USA), and quantified the presence of nitrite by comparing with a NaNO2 standard curve.

[2] = in vitro; conditions: human
Description: (§1) We plated in 96-well microplates—each containing a 100 µL culture medium—exponentially growing cells of human skin fibroblasts WS1, human HaCaT keratinocytes, human lung carcinoma A-549, and human colon adenocarcinoma DLD-1 at a density of 5 × 10^3 cells per well (Costar, Corning Inc., Lowell, MA, USA). The cells were allowed to adhere for 16 h before treatment. We then treated cells with T. vulgare essential oil or dissolved compounds in DMSO. The final concentration of DMSO in the culture medium was 0.5% (v/v) to avoid solvent toxicity. After 48 h, we assessed the cytotoxicity using the resazurin reduction test. Fluorescence was measured on an automated Fluoroskan Ascent FL^TM plate reader (Labsystems, Milford, MA, USA) using an excitation wavelength of 530 nm and an emission wavelength of 590 nm.
We assessed the cytotoxic activity of T. vulgare essential oil and its main compounds against human lung carcinoma A-549, colon adenocarcinoma DLD-1, human keratinocytes HaCaT, and healthy WS1 cell lines.

[3] = system: Staphylococcus aureus (ATCC 25923); assay: Antibacterial hydrophobic assay (resazurin); type: cell-based
Text: (§2) We tested the antibacterial activities of T. vulgare essential oil and compounds against gram-negative Escherichia coli (ATCC bacteria 25922) and gram-positive Staphylococcus aureus (ATCC bacteria 25923) using the antibacterial hydrophobic assay as described by Côté et al.. This new method was developed and used in this work as classical methods including disc diffusion and microdilution assays are sometimes inefficient for testing a matrix or compounds of a hydrophobic nature. Briefly, after microorganisms passed 16–18 h at 37 °C in a nutrient broth base (Difco), we transferred 20 µL methanol containing growing concentrations of essential oil and compounds (3.1 to 200 µg·mL^−1) onto nutrient agar of 96-well plates. We then added bacterial strains having a concentration of 5 × 10^3 colony forming units (CFU) per mL of nutrient broth. […] The blank consisted of culture medium only and was subtracted from all subsequent measurements of every other well. The 96-well plates were then incubated at 37 °C for 5 h to foster bacterial growth. We then added 100 µL of resazurin sodium salt solution having a concentration of 50 µg·mL^−1 (Sigma R-2127, St-Louis, MO, USA) to each well.

[4] = system: Escherichia coli (ATCC 25922); assay: Antibacterial hydrophobic assay (resazurin); type: cell-based
Text: as §2

[5] = system: human skin fibroblasts WS1; assay: Cell-based antioxidant DCFH-DA assay (tert-butylhydroperoxide-induced DCFH oxidation); conditions: inhibition of DCFH oxidation induced by tert-butylhydroperoxide, WS1 cells; for IC50: Homo sapiens
Description: Antioxidant activity was evaluated using the DCFH-DA assay as described by Girard-Lalancette et al.. To assess antioxidant activity, we incubated the human skin fibroblasts WS1 for 1 h with a growing concentration of essential oil or dissolved compounds in DMSO. We then added 100 µL of 200 µM tert-butylhydroperoxide and immediately measured fluorescence as well as again after 90 min later. Measurements were performed on an automated plate reader (Fluoroskan Ascent FL, Labsystems, Milford, MA, USA) using an excitation wavelength of 485 nm and an emission wavelength of 530 nm.

[6] = Cytotoxic assay, resazurin reduction test, 48 h; type: cell-based, human; conditions: human
Description: as §1

[7] = system: human colon adenocarcinoma DLD-1; assay: Cytotoxic assay, resazurin reduction test, 48 h; type: cell-based; conditions: DLD-1, 48 h
Description: as §1

[8] = system: human lung carcinoma A-549; assay: Cytotoxic assay, resazurin reduction test, 48 h; type: cell-based; conditions: A-549, 48 h
Description: as §1

[9] = system: human skin fibroblasts WS1; assay: Cytotoxic assay, resazurin reduction test, 48 h; type: cell-based; conditions: WS1, 48 h
Description: as §1

[10] = Staphylococcus aureus, ATCC25923, S. aureus, 50% inhibition of bacterial growth
[11] = Escherichia coli, ATCC25922, E. coli, 50% inhibition of bacterial growth
[12] = A-549 lung carcinoma cells, A-549, 48 h, read-out: Cytotoxicity IC50 A549
[13] = DLD-1 colon adenocarcinoma cells, DLD-1, 48 h, read-out: Cytotoxicity IC50 DLD1
[14] = WS1 skin fibroblasts, WS1, 48 h, read-out: Cytotoxicity IC50 WS1
[15] = S. aureus, 50% inhibition of bacterial growth
[16] = E. coli, 50% inhibition of bacterial growth
[17] = Staphylococcus aureus, ATCC25923, read-out: Antibacterial IC50 S. aureus
[18] = Escherichia coli, ATCC25922, read-out: Antibacterial IC50 E. coli
[19] = A-549, 48 h, read-out: Cytotoxicity IC50 A549
[20] = DLD-1, 48 h, read-out: Cytotoxicity IC50 DLD1
[21] = WS1, 48 h, read-out: Cytotoxicity IC50 WS1

IC50 ([1]; Mus musculus, RAW264.7) [mg/L]	IC50 at 48 h [2] [mg/L]	IC50 [3, 10] [mg/L]	IC50 [4, 11] [mg/L]	SMILES	IC50 [5] [mg/L]	IC50 at 48 h [6, 12] [mg/L]	IC50 at 48 h [6, 13] [mg/L]	IC50 at 48 h [6, 14] [mg/L]	also measured
> 200	> 200	> 200	> 200	CC12CCC(CC1)C(C)(C)O2 [1,8-Cineole]	> 200	> 200	> 200	> 200	
> 200	> 200	> 200	> 200	CC1(C)C2CCC1(C)C(O)C2 (stereo not shown) [Borneol]	> 200	> 200	> 200	> 200	
> 200		> 200	> 200	CC(=O)OC1CC2CCC1(C)C2(C)C (stereo not shown) [Bornyl acetate]	> 200	> 200	> 200	> 200	
> 200	28 to 112 (≈ 206 to 822 µM)	> 200	> 200	C=C1C2CCC(C2)C1(C)C (stereo not shown) [Camphene]	> 200	72 ± 2	75 ± 5	49 ± 1	
> 200	> 200	22 to 26 (≈ 145 to 171 µM)	22 to 26 (≈ 145 to 171 µM)	CC12CCC(CC1=O)C2(C)C (stereo not shown) [Camphor]	> 200	> 200	> 200	> 200	Antibacterial IC50 S. aureus [3, 15]: 26 ± 3 mg/L; Antibacterial IC50 E. coli [4, 16]: 22 ± 1 mg/L
				C=C1CC[C@H]2O[C@]2(C)CC[C@@H]2[C@@H]1CC2(C)C [Caryophyllene oxide]					Anti-Inflammation IC50 [1]: 183 ± 15 mg/L; Antibacterial IC50 S. aureus [3, 15]: 10.4 ± 0.9 mg/L; Antibacterial IC50 E. coli [4, 16]: 97 ± 2 mg/L; Antioxidant IC50 [5]: 6.2 ± 0.5 mg/L; Cytotoxicity IC50 DLD1 [7]: 43 ± 3 mg/L; Cytotoxicity IC50 A549 [8]: 36 ± 2 mg/L; Cytotoxicity IC50 WS1 [9]: 50 ± 4 mg/L
				O=C(N[C@H](CO)[C@H](O)c1ccc([N+](=O)[O-])cc1)C(Cl)Cl [Chloramphenicol, reference compound]					MIC90 ([3]; Staphylococcus aureus, ATCC25923, S. aureus, antibiotic positive control): 0.73 mg/L (≈ 2.26 µM); MIC90 ([4]; Escherichia coli, ATCC25922, E. coli, antibiotic positive control): 0.9 mg/L (≈ 2.79 µM)
				COc1cc([C@@H]2c3cc4c(cc3[C@@H](O[C@@H]3O[C@@H]5CO[C@@H](C)O[C@H]5[C@H](O)[C@H]3O)[C@H]3COC(=O)[C@H]23)OCO4)cc(OC)c1O [Etoposide, reference compound]					IC50 at 48 h ([6]; A-549 lung carcinoma cells, A-549, cytotoxic positive control, read-out: Cytotoxicity IC50 A-549): 2.3 µM; IC50 at 48 h ([6]; DLD-1 colon adenocarcinoma cells, DLD-1, cytotoxic positive control, read-out: Cytotoxicity IC50 DLD-1): 2.8 µM; IC50 at 48 h ([6]; WS1 skin fibroblasts, WS1, cytotoxic positive control, read-out: Cytotoxicity IC50 WS1): 19 µM
				COC(=O)[C@@H](N)CCCNC(N)=N[N+](=O)[O-] [L-NAME, reference compound]					inhibition at 1000 µM ([1]; Mus musculus, RAW264.7, 1 mM, positive control): 64.1%
				C=C(C)[C@H]1CC=C(C)CC1 [Limonene]					Anti-Inflammation IC50 [1]: >200 mg/L; Antibacterial IC50 S. aureus [3, 15]: >200 mg/L; Antibacterial IC50 E. coli [4, 16]: >200 mg/L; Cytotoxicity IC50 DLD1 [7]: 31 ± 3 mg/L; Cytotoxicity IC50 A549 [8]: 71 ± 6 mg/L
				O=c1c(O)c(-c2ccc(O)c(O)c2)oc2cc(O)cc(O)c12 [Quercetin, reference compound]	0.043 (≈ 0.142 µM)				
> 200		> 200	> 200	CC1=CCC(O)(C(C)C)CC1 (stereo not shown) [Terpinen-4-ol]	> 200	> 200	> 200	> 200	
> 200		> 200	> 200	Cc1ccc(C(C)C)cc1 [p-Cymene]	> 200	> 200	> 200	> 200	
				C/C1=C\CC/C(C)=C/CC(C)(C)/C=C/C1 [α-Humulene]					Anti-Inflammation IC50 [1]: 15 ± 2 mg/L; Antibacterial IC50 S. aureus [3, 15]: >200 mg/L; Antibacterial IC50 E. coli [4, 16]: >200 mg/L; Antioxidant IC50 [5]: >200 mg/L; Cytotoxicity IC50 DLD1 [7]: 43 ± 3 mg/L; Cytotoxicity IC50 A549 [8]: 28 ± 1 mg/L; Cytotoxicity IC50 WS1 [9]: 24 ± 3 mg/L
30 ± 4 (≈ 220 µM)	28 to 112 (≈ 206 to 822 µM)			CC1=CCC2CC1C2(C)C (stereo not drawn) [α-Pinene]	3.4 ± 0.2 (≈ 25 µM)	35 ± 6	58 ± 18	57 ± 4	
> 200	28 to 112 (≈ 137 to 548 µM)	> 200	> 200	C=C1CC/C=C(\C)CC[C@@H]2[C@@H]1CC2(C)C [β-Caryophyllene]	> 200	55 ± 5	97 ± 6	59 ± 7	

SMILES	IC50 ([1]; Mus musculus, RAW264.7) [mg/L]	IC50 at 48 h [2] [mg/L]	IC50 [3, 10] [mg/L]	IC50 [4, 11] [mg/L]	IC50 [5] [mg/L]	IC50 at 48 h [6, 12] [mg/L]	IC50 at 48 h [6, 13] [mg/L]	IC50 at 48 h [6, 14] [mg/L]	also measured
CC1=CCC(=C(C)C)CC1 [Terpinolene]	> 200								IC50 [3, 17]: > 200 mg/L; IC50 [4, 18]: > 200 mg/L; IC50 at 48 h [6, 19]: > 200 mg/L; IC50 at 48 h [6, 20]: > 200 mg/L; IC50 at 48 h [6, 21]: > 200 mg/L
CC1=CC=C(C(C)C)CC1 [α-Terpinene]	46 ± 4 (≈ 338 µM)	28 to 112 (≈ 206 to 822 µM)			> 200				IC50 [3, 17]: > 200 mg/L; IC50 [4, 18]: > 200 mg/L; IC50 at 48 h [6, 19]: 63 ± 10 mg/L; IC50 at 48 h [6, 20]: 73 ± 7 mg/L; IC50 at 48 h [6, 21]: 53 ± 12 mg/L
C=C1CCC2CC1C2(C)C (stereo not drawn) [β-Pinene]	46 ± 9 (≈ 338 µM)	28 to 112 (≈ 206 to 822 µM)	> 200	> 200	> 200				IC50 at 48 h [6, 19]: 43 ± 4 mg/L; IC50 at 48 h [6, 20]: 49.4 ± 0.3 mg/L; IC50 at 48 h [6, 21]: 29 ± 14 mg/L
CC1=CCC(C(C)C)=CC1 [γ-Terpinene]	> 200	28 to 112 (≈ 206 to 822 µM)							IC50 [3, 17]: 50 ± 9 mg/L (≈ 367 µM); IC50 [4, 18]: > 200 mg/L; IC50 at 48 h [6, 19]: 112 ± 15 mg/L; IC50 at 48 h [6, 20]: > 200 mg/L; IC50 at 48 h [6, 21]: 82 ± 15 mg/L
